Results published in paper PMC11566078, “Bactericidal activities and biochemical features of 16 antimicrobial peptides against bovine-mastitis causative pathogens” (Veterinary Research, 2024).
In brackets after ≈: the same amount, converted by molar mass. Like-named read-outs stand apart in the source and are kept apart here.

Columns and labels:
Type in all cases: cell-based
[1] = test system: Pseudomonas aeruginosa ATCC 27853; experiment: microbe, parasite or virus in culture; details: Pseudomonas aeruginosa, ATCC27853; ATCC 27853; CAMHB; WST colourimetric, 37 °C 6 h; triplicate; read-out: Minimal inhibitory concentration, Pseudomonas aeruginosa
Experimental: (§1) The standard bacterial strains used for antimicrobial activity assays include Staphylococcus aureus ATCC (American Type Culture Collection, Manassas, VA, USA) 6538, Bacillus cereus ATCC 10876, Enterococcus faecalis ATCC 29212, Streptococcus […] 27956, Streptococcus dysgalactiae ATCC 27957, Streptococcus equi subsp. zooepidemicus ATCC 43079, Escherichia coli ATCC 25922, and Pseudomonas aeruginosa ATCC 27853. Most bacterial strains were cultured in LB medium except for E. faecalis and streptococci, which were cultivated in brain heart infusion (BHI) broth (BD Bioscience). […] Experiments were conducted in triplicate.

[2] = test system: Bacillus cereus ATCC 10876; experiment: microbe, parasite or virus in culture; details: Bacillus cereus, ATCC10876; ATCC 10876; MH broth; WST colourimetric, 37 °C 6 h; triplicate; read-out: Minimal inhibitory concentration, Bacillus cereus
Experimental: as §1

[3] = test system: Enterococcus faecalis ATCC 29212; experiment: microbe, parasite or virus in culture; details: Enterococcus faecalis, ATCC29212; ATCC 29212; BHI broth; WST colourimetric, 37 °C 6 h; triplicate; read-out: Minimal inhibitory concentration, Enterococcus faecalis
Experimental: as §1

[4] = test system: Escherichia coli ATCC 25922; experiment: microbe, parasite or virus in culture; details: Escherichia coli, ATCC25922, 8 h, MH broth, WST colourimetric, 1.5 × 10^5 cells/well, 37 °C 6 h + 2 h reagent, A450, triplicate, read-out: Minimal inhibitory concentration, Escherichia coli
Experimental: as §1

[5] = test system: Streptococcus equi subsp. zooepidemicus ATCC 43079; experiment: microbe, parasite or virus in culture; details: Streptococcus equi, ATCC43079; ATCC 43079; BHI broth; WST colourimetric, 37 °C 6 h; triplicate; read-out: Minimal inhibitory concentration, Streptococcus equi subsp. zooepidemicus
Experimental: as §1

[6] = test system: Staphylococcus aureus ATCC 6538; experiment: microbe, parasite or virus in culture; details: Staphylococcus aureus, ATCC6538; ATCC 6538; MH broth; WST colourimetric, 37 °C 6 h; triplicate; read-out: Minimal inhibitory concentration, Staphylococcus aureus
Experimental: as §1

[7] = test system: Streptococcus dysgalactiae ATCC 27957; experiment: microbe, parasite or virus in culture; details: Streptococcus dysgalactiae, ATCC27957; ATCC 27957; BHI broth; WST colourimetric, 37 °C 6 h; triplicate; read-out: Minimal inhibitory concentration, Streptococcus dysgalactiae
Experimental: as §1

[8] = test system: Streptococcus agalactiae ATCC 27956; experiment: microbe, parasite or virus in culture; details: Streptococcus agalactiae, ATCC27956; ATCC 27956; BHI broth; WST colourimetric, 37 °C 6 h; triplicate; read-out: Minimal inhibitory concentration, Streptococcus agalactiae
Experimental: as §1

[9] = test system: Staphylococcus haemolyticus; experiment: MIC against field isolate from milk with high SCC; details: Staphylococcus haemolyticus, read-out: Minimal inhibitory concentration, Staphylococcus haemolyticus
Experimental: (§2) All plates were cultivated aerobically.
(§3) Experiments were conducted in triplicate.

Staphylococcus xylosus = experiment: microbe, parasite or virus in culture; details: Staphylococcus xylosus, read-out: Minimal inhibitory concentration, Staphylococcus xylosus
Experimental: as §2, §3

[10] = test system: Staphylococcus epidermidis; experiment: microbe, parasite or virus in culture; details: Staphylococcus epidermidis; field isolate from milk; WST colourimetric, 37 °C 6 h; triplicate; read-out: Minimal inhibitory concentration, Staphylococcus epidermidis
Experimental: as §2, §3

Aeromonas hydrophila = experiment: microbe, parasite or virus in culture; details: Aeromonas hydrophila; Gram-negative field isolate from milk; BHI broth; WST colourimetric, 37 °C 6 h; triplicate; read-out: Minimal inhibitory concentration, Aeromonas hydrophila
Experimental: as §2, §3

[11] = test system: Glutamicibacter halophytocola; experiment: microbe, parasite or virus in culture; details: Glutamicibacter halophytocola; field isolate from milk; BHI broth; WST colourimetric, 37 °C 6 h; triplicate; read-out: Minimal inhibitory concentration, Glutamicibacter halophytocola
Experimental: as §2, §3

Corynebacterium simulans = experiment: microbe, parasite or virus in culture; details: Corynebacterium simulans; field isolate from milk; BHI broth; WST colourimetric, 37 °C 6 h; triplicate; read-out: Minimal inhibitory concentration, Corynebacterium simulans
Experimental: as §2, §3

Streptococcus uberis = experiment: microbe, parasite or virus in culture; details: Streptococcus uberis; field isolate from milk; BHI broth; WST colourimetric, 37 °C 6 h; triplicate; read-out: Minimal inhibitory concentration, Streptococcus uberis
Experimental: as §2, §3

[12] = test system: Staphylococcus chromogenes; experiment: microbe, parasite or virus in culture; details: Staphylococcus chromogenes, read-out: Minimal inhibitory concentration, Staphylococcus chromogenes
Experimental: as §2, §3

[13] = field isolate from milk, WST colourimetric, 37 °C 6 h, triplicate
[14] = value in brackets, Additional file 6, field isolate

MIC [1] | MIC [2] | MIC [3] | MIC [4] | MIC [5] | MIC [6] | MIC [7] | MIC [8] | MIC (Staphylococcus xylosus; [13]) | MIC (Staphylococcus xylosus; [14]) | MIC [10] | MIC (Aeromonas hydrophila) | MIC [11] | MIC (Corynebacterium simulans) | MIC (Streptococcus uberis) | MIC [12, 13] | MIC [12, 14] | SMILES | MIC [9, 13] | MIC [9, 14]
1 µg/mL (≈ 2.09 µM) | 1 µg/mL (≈ 2.09 µM) | 90 µg/mL (≈ 188 µM) | 1 µg/mL | 45 µg/mL (≈ 94.2 µM) | 1 µg/mL (≈ 2.09 µM) | 15 µg/mL (≈ 31.4 µM) | 75 µg/mL (≈ 157 µM) | 1 µg/mL | 0.0021 µM | 4 µg/mL (≈ 8.38 µM) | 4 µg/mL (≈ 8.38 µM) | 3 µg/mL (≈ 6.28 µM) | 10 µg/mL (≈ 20.9 µM) | 60 µg/mL (≈ 126 µM) | 2 µg/mL | 0.0042 µM | CNC(C)C1CCC(N)C(OC2C(N)CC(N)C(OC3OCC(C)(O)C(NC)C3O)C2O)O1 (stereo not drawn) [Gentamicin, reference compound] | 10 µg/mL | 0.0209 µM
> 640 µg/mL | 80 µg/mL (≈ 229 µM) | 10 µg/mL (≈ 28.6 µM) | 5 µg/mL | 2 µg/mL (≈ 5.72 µM) | 2 µg/mL (≈ 5.72 µM) | 2 µg/mL (≈ 5.72 µM) | 4 µg/mL (≈ 11.4 µM) | 5 µg/mL | 0.0143 µM | 5 µg/mL (≈ 14.3 µM) | > 240 µg/mL | 15 µg/mL (≈ 42.9 µM) | > 240 µg/mL | > 240 µg/mL | 5 µg/mL | 0.0143 µM | CC1(C)S[C@@H]2[C@H](NC(=O)[C@H](N)c3ccccc3)C(=O)N2[C@H]1C(=O)O [Ampicillin, reference compound] | 10 µg/mL | 0.0286 µM

SMILES | MIC [1] | MIC [2] | MIC [3] | MIC [4] | MIC [5] | MIC [6] | MIC [7] | MIC [8] | MIC (Staphylococcus xylosus; [13]) | MIC (Staphylococcus xylosus; [14]) | MIC [10] | MIC (Aeromonas hydrophila) | MIC [11] | MIC (Corynebacterium simulans) | MIC (Streptococcus uberis) | MIC [12, 13] | MIC [12, 14] | MIC [9, 13] | MIC [9, 14]
O=C(N[C@H](CO)[C@H](O)c1ccc([N+](=O)[O-])cc1)C(Cl)Cl [Chloramphenicol, reference compound] | 80 µg/mL (≈ 248 µM) | 10 µg/mL (≈ 30.9 µM) | 10 µg/mL (≈ 30.9 µM) | 3 µg/mL | 5 µg/mL (≈ 15.5 µM) | 8 µg/mL (≈ 24.8 µM) | 4 µg/mL (≈ 12.4 µM) | 5 µg/mL (≈ 15.5 µM) | 8 µg/mL | 0.0248 µM | 5 µg/mL (≈ 15.5 µM) | 5 µg/mL (≈ 15.5 µM) | 3 µg/mL (≈ 9.28 µM) | 8 µg/mL (≈ 24.8 µM) | 50 µg/mL (≈ 155 µM) | 18 µg/mL | 0.0558 µM | 10 µg/mL | 0.031 µM
